From EP4745145A1, “SALT OF THIAZOLOPYRAZINE COMPOUND OR CRYSTAL THEREOF AND USE THEREOF” (Simcere Zaiming Pharmaceutical Co., Ltd., priority 2023, dated 2025)
Counter-ions that a name gives are not always drawn.

Columns and labels:
Format in all cases: physicochemical
[1] = Hygroscopicity experiment (dynamic vapor sorption); details: 80.0% RH, 25 °C
Description: Test conditions for the instruments used in the experiments of the present disclosure: • 1. X-ray powder diffraction • Instrument model: Bruker D8 Focus • X-ray light source: Cu Kα • Kα1 (Å): 1.54060; • Wavelength λ (Å): 1.54060 • Slit (°): 2.5 • Scan mode: θ/2θ, scan range: 3-40° (2θ angle) • Retention time (s): 0.12 • Scanning step length (° 2θ): 0.01 • Voltage: 40 kV • Current: 40 mA • 2. Differential scanning calorimeter • Instrument model: Discovery DSC 2500 • Purging gas: nitrogen • Sample tray: aluminum tray, non-sealing gland • Method: linear heating • Ramping rate: 10 °C/min • Temperature range: 30 °C-400 °C • 3. Thermogravimetric analyzer • Instrument model: Discovery TA 55 • Purging gas: nitrogen • Sample tray: platinum, open • Method: linear heating • Ramping rate: Ramp from a starting temperature of 30 °C to 400 °C at a rate of 10 °C/min • Temperature range: 30 °C-400 °C • 4. Dynamic vapor sorption instrument • Instrument model: DVS Intrinsic. • DVS parameters: • Temperature: 25 °C; • Equilibrium: dm/dt = 0.002%/min • RH (%) test gradient: 10% • Range of RH (%) test gradient: 0%-90%-0%. • 5. Ion chromatography • Instrument model: Thermo Fisher Integrion, No. IC001 • Test method: Conductivity […] • Separation column: Dionex IonpacTM CS12 Guard 4 × 250 mm • Eluent: 20 mM methanesulfonic acid solution • Flow rate: 1.0 mL/min
• (1) Experimental instrument: dynamic vapor sorption DVS Intrinsic. • (2) Experimental conditions: Each test sample was taken and placed in a DVS sample pan for testing. • (3) DVS parameters: • Temperature: 25 °C; • Equilibrium: dm/dt = 0.002%/min • RH (%) test gradient: 10% • Range of RH (%) test gradient: 0%-90%-0%.

[2] = Solubility experiment in water
Description: The thermodynamic solubility of the compounds of the present disclosure was determined using the following test method.
The thermodynamic solubility of the compounds of the present disclosure in water was investigated. Water (1000 µL) was measured and placed into a 1 mL transparent glass tube with a stopper. An appropriate amount of each sample was weighed and added to saturate the solution, and the solution was shaken to disperse the sample. […] Then, an appropriate amount of the sample was taken, filtered through a microporous filter membrane, and subjected to content determination using high-performance liquid chromatography with an external standard method. The thermodynamic solubility of each compound in water (µg/mL) was calculated.

[3] = Influencing factor experiment (stability under high temperature, high humidity, light)
Description: (§1) Each test sample was placed under high temperature (60 °C), high humidity (92.5%), light (7000 lux), or accelerated (40 °C, 75% RH) conditions using a 2 mL screw-thread sample vial in an open state; each sample was placed with packaging (2 layers of medicinal low-density polyethylene bags + 1 layer of polyester/aluminum/polyethylene medicinal composite film bag) under light (7000 lux) or accelerated (40 °C, 75% RH) conditions to investigate the stability of the sample.

[4] = Accelerated experiment (stability at 40 °C, 75% RH)
Description: as §1

[5] = Light (7000 lux, packaged), 10d
[6] = Light (7000 lux, packaged), 32d
[7] = Accelerated (40 °C), packaged, 14d
[8] = Accelerated (40 °C), packaged, 32d

## COc1ccc(Cl)cc1-c1cc(C)ncc1C(=O)Nc1nc2ncc(-c3ccc(C#N)cc3)nc2s1 [Crystal form E]
[1]
  weight gain due to moisture absorption: 2.5%
[2]; 1h, 60 min
  Dynamic solubility in water: <0.5 µg/mL
[2]; 2h, 120 min
  Dynamic solubility in water: 1.03 µg/mL
[2]; 4h, 240 min
  Dynamic solubility in water: 2.26 µg/mL
[2]; 24h, 1440 min
  Dynamic solubility in water: 2.72 µg/mL
[3]; 0 h, 0d
  Purity: 99.39%
  Total impurities: 0.52%
[3]; High humidity (92.5% RH), 11d
  Purity: 99.48%
  Total impurities: 0.52%
[3]; High temperature (60 °C), 11d
  Purity: 99.25%
  Total impurities: 0.75%
[3]; Light (7000 lux, open), 7d
  Purity: 99.24%
  Total impurities: 0.76%
[3]; high humidity (92.5% RH)
  physical stability: relatively poor physical stability
[4]; 0 h, 0d
  Purity: 99.39%
  Total impurities: 0.52%
[4]; Accelerated (40 °C), open, 7d
  Purity: 99.49%
  Total impurities: 0.51%
[4]; accelerated (40 °C, 75% RH)
  physical stability: relatively poor physical stability

## COc1ccc(Cl)cc1-c1cc(C)ncc1C(=O)Nc1nc2ncc(-c3ccc(C#N)cc3)nc2s1 [Crystal form A]
[1]
  weight gain due to moisture absorption: 1.6%
[2]; 1h, 60 min
  Dynamic solubility in water: 2081.71 µg/mL
[2]; 2h, 120 min
  Dynamic solubility in water: 1590.35 µg/mL
[2]; 4h, 240 min
  Dynamic solubility in water: 1441.04 µg/mL
[2]; 24h, 1440 min
  Dynamic solubility in water: 27.01 µg/mL
[3]; 0 h, 0d
  Purity: 99.21%
  Total impurities: 0.79%
[3]; High humidity (92.5% RH), 7d
  Purity: 99.26%
  Total impurities: 0.74%
[3]; High humidity (92.5% RH), 14d
  Purity: 99.20%
  Total impurities: 0.80%
[3]; High humidity (92.5% RH), 32d
  Purity: 99.21%
  Total impurities: 0.79%
[3]; High temperature (60 °C), 7d
  Purity: 99.23%
  Total impurities: 0.77%
[3]; High temperature (60 °C), 14d
  Purity: 99.17%
  Total impurities: 0.83%
[3]; High temperature (60 °C), 32d
  Purity: 99.15%
  Total impurities: 0.85%
[3]; Light (7000 lux, open), 7d
  Purity: 99.11%
  Total impurities: 0.89%
[3]; Light (7000 lux, open), 14d
  Purity: 98.75%
  Total impurities: 1.25%
[3]; Light (7000 lux, open), 32d
  Purity: 98.24%
  Total impurities: 1.76%
[3]; [5]
  Purity: 99.19%
  Total impurities: 0.81%
[3]; [6]
  Purity: 99.22%
  Total impurities: 0.78%
[4]; 0 h, 0d
  Purity: 99.21%
  Total impurities: 0.79%
[4]; Accelerated (40 °C), open, 7d
  Purity: 99.21%
  Total impurities: 0.79%
[4]; Accelerated (40 °C), open, 14d
  Purity: 99.17%
  Total impurities: 0.83%
[4]; Accelerated (40 °C), open, 32d
  Purity: 99.18%
  Total impurities: 0.82%
[4]; [7]
  Purity: 99.19%
  Total impurities: 0.81%
[4]; [8]
  Purity: 99.19%
  Total impurities: 0.81%

## COc1ccc(Cl)cc1-c1cc(C)ncc1C(=O)Nc1nc2ncc(-c3ccc(C#N)cc3)nc2s1 [Crystal form B]
[1]
  weight gain due to moisture absorption: 1.5%
[2]; 1h
  Dynamic solubility in water: <0.5 µg/mL
[2]; 2h
  Dynamic solubility in water: <0.5 µg/mL
[2]; 4h
  Dynamic solubility in water: <0.5 µg/mL
[2]; 24h
  Dynamic solubility in water: 0.77 µg/mL
[3]; 0 h, 0d
  Purity: 98.89%
  Total impurities: 1.11%
[3]; High humidity (92.5% RH), 7d
  Purity: 98.60%
  Total impurities: 1.40%
[3]; High humidity (92.5% RH), 14d
  Purity: 98.89%
  Total impurities: 1.11%
[3]; High humidity (92.5% RH), 32d
  Purity: 98.83%
  Total impurities: 1.17%
[3]; High temperature (60 °C), 7d
  Purity: 98.98%
  Total impurities: 1.02%
[3]; High temperature (60 °C), 14d
  Purity: 98.93%
  Total impurities: 1.07%
[3]; High temperature (60 °C), 32d
  Purity: 98.84%
  Total impurities: 1.16%
[3]; Light (7000 lux, open), 7d
  Purity: 98.84%
  Total impurities: 1.16%
[3]; Light (7000 lux, open), 14d
  Purity: 98.85%
  Total impurities: 1.15%
[3]; Light (7000 lux, open), 32d
  Purity: 98.73%
  Total impurities: 1.27%
[3]; [5]
  Purity: 98.90%
  Total impurities: 1.10%
[3]; [6]
  Purity: 98.90%
  Total impurities: 1.10%
[4]; 0 h, 0d
  Purity: 98.89%
  Total impurities: 1.11%
[4]; Accelerated (40 °C), open, 7d
  Purity: 98.84%
  Total impurities: 1.16%
[4]; Accelerated (40 °C), open, 14d
  Purity: 98.87%
  Total impurities: 1.13%
[4]; Accelerated (40 °C), open, 32d
  Purity: 98.88%
  Total impurities: 1.12%
[4]; [7]
  Purity: 98.87%
  Total impurities: 1.13%
[4]; [8]
  Purity: 98.82%
  Total impurities: 1.18%

## COc1ccc(Cl)cc1-c1cc(C)ncc1C(=O)Nc1nc2ncc(-c3ccc(C#N)cc3)nc2s1 [Crystal form C]
[1]
  weight gain due to moisture absorption: -4.3%
[2]; 1h, 60 min
  Dynamic solubility in water: 857.52 µg/mL
[2]; 4h, 240 min
  Dynamic solubility in water: 1337.74 µg/mL
[2]; 24h, 1440 min
  Dynamic solubility in water: 108.15 µg/mL
[3]; 0 h, 0d
  Purity: 99.2%
  Total impurities: 0.80%
[3]; High humidity (92.5% RH), 7d
  Purity: 99.21%
  Total impurities: 0.79%
[3]; High humidity (92.5% RH), 14d
  Purity: 99.20%
  Total impurities: 0.80%
[3]; High temperature (60 °C), 7d
  Purity: 99.26%
  Total impurities: 0.74%
[3]; High temperature (60 °C), 14d
  Purity: 99.22%
  Total impurities: 0.78%
[3]; Light (7000 lux, open), 7d
  Purity: 98.29%
  Total impurities: 1.71%
[3]; Light (7000 lux, open), 14d
  Purity: 97.16%
  Total impurities: 2.84%
[4]; 0 h, 0d
  Purity: 99.2%
  Total impurities: 0.8%
[4]; Accelerated (40 °C), open, 7d
  Purity: 99.20%
  Total impurities: 0.80%
[4]; Accelerated (40 °C), open, 14d
  Purity: 99.21%
  Total impurities: 0.79%

## COc1ccc(Cl)cc1-c1cc(C)ncc1C(=O)Nc1nc2ncc(-c3ccc(C#N)cc3)nc2s1 [Amorphous form of sodium salt of compound of formula I]
[2]; 1h, 60 min
  Dynamic solubility in water: 1.57 µg/mL
[2]; 2h, 120 min
  Dynamic solubility in water: 4.37 µg/mL
[2]; 4h, 240 min
  Dynamic solubility in water: 44.68 µg/mL
[2]; 24h, 1440 min
  Dynamic solubility in water: 0.72 µg/mL
[3]; 0 h, 0d
  Purity: 99.31%
  Total impurities: 0.52%
[3]; High humidity (92.5% RH), 11d
  Purity: 98.89%
  Total impurities: 1.11%
[3]; High temperature (60 °C), 11d
  Purity: 99.23%
  Total impurities: 0.77%
[3]; Light (7000 lux, open), 7d
  Purity: 97.57%
  Total impurities: 2.43%
[4]; 0 h, 0d
  Purity: 99.31%
  Total impurities: 0.52%
[4]; Accelerated (40 °C), open, 7d
  Purity: 99.33%
  Total impurities: 0.67%
